What was measured:
[1] = biological target: T1, Serine/threonine-protein kinase D1 (Homo sapiens) (UniProt Q15139); assay: Inhibition of PKCmu (unknown origin) at 50 nM by Z'LYTE screening method relative to control
T1 sequence (whole entry): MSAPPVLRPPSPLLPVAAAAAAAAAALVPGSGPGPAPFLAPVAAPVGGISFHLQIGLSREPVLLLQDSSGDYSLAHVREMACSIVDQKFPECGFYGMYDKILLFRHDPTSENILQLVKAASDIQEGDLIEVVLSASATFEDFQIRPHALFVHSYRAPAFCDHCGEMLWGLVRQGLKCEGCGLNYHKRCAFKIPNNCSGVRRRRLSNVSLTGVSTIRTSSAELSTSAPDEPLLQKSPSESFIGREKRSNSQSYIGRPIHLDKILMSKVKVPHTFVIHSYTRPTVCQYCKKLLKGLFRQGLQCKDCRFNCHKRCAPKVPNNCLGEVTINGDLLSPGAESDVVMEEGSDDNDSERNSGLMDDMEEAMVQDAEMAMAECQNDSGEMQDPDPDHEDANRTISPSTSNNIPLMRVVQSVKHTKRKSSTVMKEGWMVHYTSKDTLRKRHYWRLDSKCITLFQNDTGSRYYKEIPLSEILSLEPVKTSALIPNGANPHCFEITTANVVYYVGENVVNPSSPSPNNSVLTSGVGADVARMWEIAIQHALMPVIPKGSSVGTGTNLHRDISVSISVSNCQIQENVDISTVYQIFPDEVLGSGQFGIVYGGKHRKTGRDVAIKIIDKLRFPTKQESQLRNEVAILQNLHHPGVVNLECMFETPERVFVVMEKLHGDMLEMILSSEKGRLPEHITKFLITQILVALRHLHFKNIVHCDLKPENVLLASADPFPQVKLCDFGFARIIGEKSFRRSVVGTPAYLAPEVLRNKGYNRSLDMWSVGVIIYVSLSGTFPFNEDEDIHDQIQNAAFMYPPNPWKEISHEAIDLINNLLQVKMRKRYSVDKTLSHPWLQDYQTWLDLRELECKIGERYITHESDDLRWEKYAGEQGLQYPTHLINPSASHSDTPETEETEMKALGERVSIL

[2] = biological target: T2, Serine/threonine-protein kinase D3 (Homo sapiens) (UniProt O94806); assay: Inhibition of PKCnu (unknown origin) at 50 nM by Z'LYTE screening method relative to control
T2 sequence (whole entry): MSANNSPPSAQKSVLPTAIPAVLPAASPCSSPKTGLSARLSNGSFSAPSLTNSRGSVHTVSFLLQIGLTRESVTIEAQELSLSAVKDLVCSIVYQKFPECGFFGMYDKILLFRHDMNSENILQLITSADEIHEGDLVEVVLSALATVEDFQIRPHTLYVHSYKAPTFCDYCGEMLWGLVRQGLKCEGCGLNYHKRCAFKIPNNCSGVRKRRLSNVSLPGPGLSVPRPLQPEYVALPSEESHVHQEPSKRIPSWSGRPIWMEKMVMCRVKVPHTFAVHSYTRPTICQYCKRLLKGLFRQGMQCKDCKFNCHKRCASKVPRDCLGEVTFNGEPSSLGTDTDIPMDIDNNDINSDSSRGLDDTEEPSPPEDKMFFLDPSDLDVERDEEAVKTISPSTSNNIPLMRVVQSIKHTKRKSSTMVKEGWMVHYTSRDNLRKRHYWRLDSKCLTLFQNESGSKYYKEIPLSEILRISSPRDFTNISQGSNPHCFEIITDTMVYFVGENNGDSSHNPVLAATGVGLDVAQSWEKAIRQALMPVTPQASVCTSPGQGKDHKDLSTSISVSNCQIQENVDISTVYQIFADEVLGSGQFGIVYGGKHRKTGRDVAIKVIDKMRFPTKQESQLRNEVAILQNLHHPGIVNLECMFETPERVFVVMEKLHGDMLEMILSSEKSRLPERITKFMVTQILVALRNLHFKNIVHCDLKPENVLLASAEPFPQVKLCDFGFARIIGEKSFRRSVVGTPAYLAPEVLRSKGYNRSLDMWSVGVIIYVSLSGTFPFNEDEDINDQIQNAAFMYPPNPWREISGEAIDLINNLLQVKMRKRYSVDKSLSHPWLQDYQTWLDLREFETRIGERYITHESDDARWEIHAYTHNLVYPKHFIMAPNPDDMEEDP

MDA-MB-231 = assay: Cytotoxicity against human MDA-MB-231/M cells assessed as reduction in cell viability incubated for 96 hrs by MTT assay; assay type: functional, cell-based; details: MDA-MB-231, 96 h
[3] = biological target: ALK tyrosine kinase receptor (Homo sapiens) (UniProt Q9UM73); assay: Inhibition of ALK (unknown origin) at 50 nM by Z'LYTE screening method relative to control
ALK tyrosine kinase receptor (Homo sapiens), sequence (Q9UM73 19-1620 limits assumed): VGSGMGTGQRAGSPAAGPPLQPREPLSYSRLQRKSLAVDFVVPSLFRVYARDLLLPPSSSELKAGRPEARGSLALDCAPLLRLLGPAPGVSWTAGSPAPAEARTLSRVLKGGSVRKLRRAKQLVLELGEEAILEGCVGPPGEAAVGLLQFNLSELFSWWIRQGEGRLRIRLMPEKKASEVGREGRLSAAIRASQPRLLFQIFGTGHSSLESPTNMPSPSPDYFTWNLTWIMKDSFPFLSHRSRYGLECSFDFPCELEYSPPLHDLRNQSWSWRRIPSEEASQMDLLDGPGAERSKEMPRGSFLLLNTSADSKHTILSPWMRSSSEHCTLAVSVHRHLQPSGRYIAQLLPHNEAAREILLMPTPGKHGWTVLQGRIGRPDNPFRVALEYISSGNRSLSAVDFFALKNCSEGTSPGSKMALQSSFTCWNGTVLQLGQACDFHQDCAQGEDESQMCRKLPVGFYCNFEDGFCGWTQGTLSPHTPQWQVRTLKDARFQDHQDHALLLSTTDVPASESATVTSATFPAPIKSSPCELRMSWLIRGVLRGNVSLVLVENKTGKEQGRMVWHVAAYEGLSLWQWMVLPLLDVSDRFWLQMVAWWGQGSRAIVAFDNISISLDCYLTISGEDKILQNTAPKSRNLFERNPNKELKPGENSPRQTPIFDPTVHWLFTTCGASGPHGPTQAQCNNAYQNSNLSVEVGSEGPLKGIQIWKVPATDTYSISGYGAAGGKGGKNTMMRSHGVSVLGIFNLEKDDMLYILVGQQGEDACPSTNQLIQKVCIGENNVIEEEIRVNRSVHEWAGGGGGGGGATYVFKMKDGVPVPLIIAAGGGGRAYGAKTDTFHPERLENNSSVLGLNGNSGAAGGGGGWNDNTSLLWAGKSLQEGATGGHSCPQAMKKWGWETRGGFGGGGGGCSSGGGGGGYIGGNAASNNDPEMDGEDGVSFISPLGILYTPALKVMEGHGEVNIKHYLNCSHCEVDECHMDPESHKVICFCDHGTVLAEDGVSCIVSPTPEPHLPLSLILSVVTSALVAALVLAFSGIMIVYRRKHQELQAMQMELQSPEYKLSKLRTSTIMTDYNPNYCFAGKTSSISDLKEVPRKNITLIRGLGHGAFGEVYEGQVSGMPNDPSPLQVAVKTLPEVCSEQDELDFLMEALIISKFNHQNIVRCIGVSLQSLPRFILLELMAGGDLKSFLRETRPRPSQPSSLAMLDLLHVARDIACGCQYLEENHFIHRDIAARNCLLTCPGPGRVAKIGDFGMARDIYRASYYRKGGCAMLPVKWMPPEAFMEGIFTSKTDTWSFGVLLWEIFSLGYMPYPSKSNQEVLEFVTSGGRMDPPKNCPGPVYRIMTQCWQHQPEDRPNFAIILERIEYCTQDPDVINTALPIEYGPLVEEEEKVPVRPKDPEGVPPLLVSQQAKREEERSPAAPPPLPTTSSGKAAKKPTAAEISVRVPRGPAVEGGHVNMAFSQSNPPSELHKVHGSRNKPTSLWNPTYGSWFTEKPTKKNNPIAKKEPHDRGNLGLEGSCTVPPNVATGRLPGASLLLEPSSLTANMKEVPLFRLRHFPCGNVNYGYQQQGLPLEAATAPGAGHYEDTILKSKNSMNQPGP

[4] = biological target: Tyrosine-protein kinase SYK (Homo sapiens) (UniProt P43405); assay: Inhibition of SYK (unknown origin) at 50 nM by Z'LYTE screening method relative to control
[5] = biological target: Mitogen-activated protein kinase 1 (Homo sapiens) (UniProt P28482); assay: Inhibition of MAPK1 (unknown origin) at 50 nM by Z'LYTE screening method relative to control
Mitogen-activated protein kinase 1 (Homo sapiens), sequence (P28482 whole entry): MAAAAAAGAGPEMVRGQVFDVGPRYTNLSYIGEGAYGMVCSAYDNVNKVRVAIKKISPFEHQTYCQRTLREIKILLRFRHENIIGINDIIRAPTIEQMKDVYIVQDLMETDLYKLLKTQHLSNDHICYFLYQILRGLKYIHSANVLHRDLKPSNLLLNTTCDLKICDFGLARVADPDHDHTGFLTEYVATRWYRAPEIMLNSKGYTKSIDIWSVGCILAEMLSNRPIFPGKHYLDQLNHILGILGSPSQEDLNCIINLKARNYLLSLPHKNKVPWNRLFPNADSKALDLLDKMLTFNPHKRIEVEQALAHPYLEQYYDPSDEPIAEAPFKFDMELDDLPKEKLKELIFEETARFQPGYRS

[6] = biological target: Proto-oncogene tyrosine-protein kinase receptor Ret (Homo sapiens) (UniProt P07949); assay: Inhibition of RET (unknown origin) at 50 nM by Z'LYTE screening method relative to control
Proto-oncogene tyrosine-protein kinase receptor Ret (Homo sapiens), sequence (P07949 whole entry): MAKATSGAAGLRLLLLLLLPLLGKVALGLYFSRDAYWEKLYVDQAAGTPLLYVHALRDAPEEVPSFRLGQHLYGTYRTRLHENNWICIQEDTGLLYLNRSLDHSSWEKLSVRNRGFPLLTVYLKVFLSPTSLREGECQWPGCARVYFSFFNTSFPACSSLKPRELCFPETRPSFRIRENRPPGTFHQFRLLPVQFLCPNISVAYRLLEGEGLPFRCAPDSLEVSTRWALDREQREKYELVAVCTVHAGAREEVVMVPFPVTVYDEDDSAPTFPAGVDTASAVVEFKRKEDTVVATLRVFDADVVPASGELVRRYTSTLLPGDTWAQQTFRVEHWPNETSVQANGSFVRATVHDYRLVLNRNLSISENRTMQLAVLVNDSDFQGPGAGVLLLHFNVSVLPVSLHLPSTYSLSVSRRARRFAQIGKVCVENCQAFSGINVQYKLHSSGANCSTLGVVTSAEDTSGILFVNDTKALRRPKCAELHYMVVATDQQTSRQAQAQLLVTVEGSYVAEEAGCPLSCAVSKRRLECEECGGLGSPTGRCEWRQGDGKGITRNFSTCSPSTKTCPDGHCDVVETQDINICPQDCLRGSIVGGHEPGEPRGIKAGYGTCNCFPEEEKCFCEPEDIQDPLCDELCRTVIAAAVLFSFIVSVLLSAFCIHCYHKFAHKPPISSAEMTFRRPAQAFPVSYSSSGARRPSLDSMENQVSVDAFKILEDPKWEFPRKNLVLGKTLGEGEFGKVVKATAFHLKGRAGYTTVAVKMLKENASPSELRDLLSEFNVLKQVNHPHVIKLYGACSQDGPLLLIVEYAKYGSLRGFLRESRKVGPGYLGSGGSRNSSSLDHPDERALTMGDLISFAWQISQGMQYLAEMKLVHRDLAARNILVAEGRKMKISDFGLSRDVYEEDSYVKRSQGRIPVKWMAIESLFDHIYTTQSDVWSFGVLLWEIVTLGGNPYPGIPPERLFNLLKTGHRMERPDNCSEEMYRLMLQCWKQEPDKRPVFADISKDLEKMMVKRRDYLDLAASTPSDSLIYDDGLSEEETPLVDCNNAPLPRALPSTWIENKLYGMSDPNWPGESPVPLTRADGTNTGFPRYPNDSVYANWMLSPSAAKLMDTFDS

[7] = biological target: Protein kinase C beta type (Homo sapiens) (UniProt P05771); assay: Inhibition of PKCbeta1 (unknown origin) at 50 nM by Z'LYTE screening method relative to control
Protein kinase C beta type (Homo sapiens), sequence (P05771 2-671 limits assumed): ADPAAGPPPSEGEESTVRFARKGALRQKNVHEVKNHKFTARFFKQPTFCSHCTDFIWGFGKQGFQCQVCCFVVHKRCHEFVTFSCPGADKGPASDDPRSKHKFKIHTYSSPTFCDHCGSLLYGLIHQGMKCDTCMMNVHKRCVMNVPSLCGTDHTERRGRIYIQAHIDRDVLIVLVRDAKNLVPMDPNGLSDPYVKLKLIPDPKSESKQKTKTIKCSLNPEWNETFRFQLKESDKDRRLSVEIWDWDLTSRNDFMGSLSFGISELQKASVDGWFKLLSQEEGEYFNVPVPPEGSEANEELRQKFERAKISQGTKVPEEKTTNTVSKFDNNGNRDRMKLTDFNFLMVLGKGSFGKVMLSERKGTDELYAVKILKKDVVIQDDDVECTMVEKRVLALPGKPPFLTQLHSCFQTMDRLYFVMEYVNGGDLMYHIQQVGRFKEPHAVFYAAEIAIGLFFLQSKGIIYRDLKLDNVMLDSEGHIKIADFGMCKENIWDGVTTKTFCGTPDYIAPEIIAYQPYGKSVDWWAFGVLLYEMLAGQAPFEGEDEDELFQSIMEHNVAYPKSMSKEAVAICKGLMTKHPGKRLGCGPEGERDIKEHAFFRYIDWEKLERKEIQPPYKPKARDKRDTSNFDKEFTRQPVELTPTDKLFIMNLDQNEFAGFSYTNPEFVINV

[8] = biological target: Protein kinase C beta type (Homo sapiens) (UniProt P05771); assay: Inhibition of PKCbeta2 (unknown origin) at 50 nM by Z'LYTE screening method relative to control
[9] = biological target: Protein kinase C gamma type (Homo sapiens) (UniProt P05129); assay: Inhibition of PKC gamma (unknown origin) at 50 nM by Z'LYTE screening method relative to control
[10] = biological target: Dual specificity mitogen-activated protein kinase kinase 1 (Homo sapiens) (UniProt Q02750); assay: Inhibition of MAP2K1 (unknown origin) at 50 nM by Z'LYTE screening method relative to control
Dual specificity mitogen-activated protein kinase kinase 1 (Homo sapiens), sequence (Q02750 whole entry): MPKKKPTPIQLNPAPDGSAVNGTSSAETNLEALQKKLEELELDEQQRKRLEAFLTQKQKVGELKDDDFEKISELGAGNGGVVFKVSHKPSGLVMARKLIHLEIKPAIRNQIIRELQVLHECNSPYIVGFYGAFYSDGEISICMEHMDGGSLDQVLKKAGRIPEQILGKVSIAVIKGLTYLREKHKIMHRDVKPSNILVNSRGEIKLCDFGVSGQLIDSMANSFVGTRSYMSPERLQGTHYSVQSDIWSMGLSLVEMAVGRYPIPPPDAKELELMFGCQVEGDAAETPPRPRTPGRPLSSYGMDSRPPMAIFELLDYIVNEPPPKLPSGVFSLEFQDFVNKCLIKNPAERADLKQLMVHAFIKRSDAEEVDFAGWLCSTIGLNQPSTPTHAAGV

[11] = biological target: Cell division control protein 42 homolog (Homo sapiens) (UniProt P60953); assay: Inhibition of CDC42 delta (unknown origin) at 50 nM by Z'LYTE screening method relative to control
Cell division control protein 42 homolog (Homo sapiens), sequence (P60953 whole entry, looked up): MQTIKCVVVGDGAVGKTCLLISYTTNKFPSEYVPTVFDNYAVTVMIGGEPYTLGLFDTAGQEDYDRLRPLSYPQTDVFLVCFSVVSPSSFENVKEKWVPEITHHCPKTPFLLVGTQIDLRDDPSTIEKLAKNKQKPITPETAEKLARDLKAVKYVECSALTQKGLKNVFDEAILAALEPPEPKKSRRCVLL

[12] = biological target: Proto-oncogene tyrosine-protein kinase Src (Homo sapiens) (UniProt P12931); assay: Inhibition of SRC (unknown origin) at 50 nM by Z'LYTE screening method relative to control
Proto-oncogene tyrosine-protein kinase Src (Homo sapiens), sequence (P12931 2-536 limits assumed): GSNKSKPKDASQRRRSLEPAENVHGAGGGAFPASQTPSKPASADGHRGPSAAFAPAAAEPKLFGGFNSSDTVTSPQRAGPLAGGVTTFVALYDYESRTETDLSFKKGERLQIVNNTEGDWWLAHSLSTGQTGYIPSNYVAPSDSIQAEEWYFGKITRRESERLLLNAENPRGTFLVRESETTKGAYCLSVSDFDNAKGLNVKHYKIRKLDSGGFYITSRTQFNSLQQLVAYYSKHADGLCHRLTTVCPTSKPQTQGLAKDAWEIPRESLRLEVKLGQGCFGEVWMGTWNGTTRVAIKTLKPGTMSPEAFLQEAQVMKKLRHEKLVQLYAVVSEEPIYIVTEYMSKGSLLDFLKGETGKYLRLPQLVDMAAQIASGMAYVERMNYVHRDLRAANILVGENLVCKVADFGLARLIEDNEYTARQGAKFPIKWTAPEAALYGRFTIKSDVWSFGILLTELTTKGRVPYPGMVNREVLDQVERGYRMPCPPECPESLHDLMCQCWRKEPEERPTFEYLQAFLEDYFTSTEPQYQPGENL

[13] = biological target: Mitogen-activated protein kinase 8 (Homo sapiens) (UniProt P45983); assay: Inhibition of MAPK8 (unknown origin) at 50 nM by Z'LYTE screening method relative to control
[14] = biological target: Serine/threonine-protein kinase PAK 1 (Homo sapiens) (UniProt Q13153); assay: Inhibition of PAK1 (unknown origin) at 50 nM by Z'LYTE screening method relative to control
[15] = biological target: Ribosomal protein S6 kinase beta-1 (Homo sapiens) (UniProt P23443); assay: Inhibition of p70S6K (unknown origin) at 50 nM by Z'LYTE screening method relative to control

SMILES: O=C1c2ccccc2CN1c1nc(NC2CCCCC2)c2nc[nH]c2n1
- inhibition [1]: 6%
- inhibition [2]: 0%
- IC50 (MDA-MB-231): 36.6 µM
- inhibition [3]: 1%
- inhibition [4]: 3%
- inhibition [5]: 2%
- inhibition [6]: 10%
- inhibition [7]: 5%
- inhibition [8]: 5%
- inhibition [9]: 0%
- inhibition [10]: 4%
- inhibition [11]: 0%
- inhibition [12]: 5%
- inhibition [13]: 0%
- inhibition [14]: 0%
- inhibition [15]: 1%

— ChEMBL document CHEMBL5154740, “Novel Aurora A and Protein Kinase C (α, β1, β2, and θ) Multitarget Inhibitors: Impact of Selenium Atoms on the Potency and Selectivity” (J Med Chem, 2022)
